Source: US9440964B2, “Pesticidal compositions and processes related thereto” (Dow AgroSciences LLC, priority 2011, dated 2016)
Like-named read-outs stand apart in the source and are kept apart here.

Columns and labels:
Type in all cases: in vivo
[1] = test system: CEW (Helicoverpa zea); assay: Bioassay on Corn Earworm (CEW), 128-well diet tray; settings: Helicoverpa zea, 168 h; for pest or weed control at 0.5 µg/cm2: 0.5 μg/cm^2 on diet, read-out: Rating CEW (*Tested at 0.5 μg/cm^2); for pest or weed control at 50 µg/cm2: read-out: Rating CEW
Experimental: (§1) Certain molecules disclosed in this document were tested against BAW and CEW using procedures described in the following examples. In the reporting of the results, the “BAW & CEW Rating Table” was used (See Table Section).
Bioassays on CEW (Helicoverpa zea)
(§2) Trays were covered with a clear self-adhesive cover and held at 25° C., 14:10 light-dark for five to seven days. Percent mortality was recorded for the larvae in each well; activity in the eight wells was then averaged. The results are indicated in the table entitled “Table ABC: Biological Results” (See Table Section).

[2] = test system: BAW (Spodoptera exigua); assay: Bioassay on Beet Armyworm (BAW), 128-well diet tray; settings: Spodoptera exigua, 168 h, read-out: Rating BAW
Experimental: as §1
Bioassays on BAW (Spodoptera exigua)
as §2

[3] = test system: Yellow Fever Mosquito YFM (Aedes aegypti); assay: Bioassay on Yellow Fever Mosquito (YFM) larvae, 96-well plate; settings: mortality of about 1 day-old larvae, scored after 3 days
Experimental: Certain molecules disclosed in this document were tested against YFM using procedures described in the following paragraph. In the reporting of the results, the “YFM Rating Table” was used (See Table Section).
Master plates containing 400 μg of a molecule dissolved in 100 μL of dimethyl sulfoxide (DMSO) (equivalent to a 4000 ppm solution) are used. A master plate of assembled molecules contains 15 μL per well. To this plate, 135 μL of a 90:10 water:acetone mixture is added to each well. A robot (Biomek® NXP Laboratory Automation Workstation) is programmed to dispense 15 μL aspirations from the master plate into an empty 96-well shallow plate (“daughter” plate). There are 6 reps (“daughter” plates) created per master. The created daughter plates are then immediately infested with YFM larvae.
The day before plates are to be treated, mosquito eggs are placed in Millipore water containing liver powder to begin hatching (4 g. into 400 ml). After the daughter plates are created using the robot, they are infested with 220 μL of the liver powder/larval mosquito mixture (about 1 day-old larvae). After plates are infested with mosquito larvae, a non-evaporative lid is used to cover the plate to reduce drying. Plates are held at room temperature for 3 days prior to grading. After 3 days, each well is observed and scored based on mortality.
The results are indicated in the table entitled “Table ABC: Biological Results” (See Table Section).

[4] = percent mortality, second instar larvae, five to seven days
[5] = percent mortality, second instar larvae, 50 μg/cm^2 on diet, five to seven days

Compound	pest or weed control at 0.5 µg/cm2 [1, 4]	pest or weed control at 50 µg/cm2 [2, 5]	Rating YFM [3]	pest or weed control at 50 µg/cm2 [1, 5]	pest or weed control at 50 µg/cm2 [1]	pest or weed control at 50 µg/cm2 [2]
Cc1ccccc1N1C(=O)CS/C1=N\C(=O)Nc1ccc(-c2ncn(-c3ccc(OC(F)(F)F)cc3)n2)cc1 [Molecule A65]	50 to 100%	50 to 100%	A (80-100)	–	–	–
Cc1cc(-c2ncn(-c3ccc(OC(F)(F)F)cc3)n2)ccc1NC(=O)/N=C(\S)Nc1ccccc1C(C)C [Molecule A122, N-[[(2-isopropyllphenyl)amino]thioxomethyl]-N′-(2-methyl(4-(1-(4-(trifluoromethoxy)phenyl)-1H-1,2,4-triazol-3-yl)phenyl))urea]	50 to 100%	50 to 100%	A (80-100)	–	–	–
CCc1ccccc1N1C(=O)CS/C1=N\C(=O)Nc1ccc(-c2ncn(-c3ccc(OC(F)(F)F)cc3)n2)cc1 [Molecule A35]	–	50 to 100%	A (80-100)	50 to 100%	–	–
CCC(C)c1ccccc1N1C(=O)CS/C1=N\C(=O)Nc1ccc(-c2ncn(-c3ccc(OC(F)(F)F)cc3)n2)cc1 (stereo not shown) [Molecule A18, (Z)-1-(3-(2-(sec-butyl)phenyl)-4-oxothiazolidin-2-ylidene)-3-(4-(1-(4-(trifluoromethoxy)phenyl)-1H-1,2,4-triazol-3-yl)phenyl)urea]	–	50 to 100%	A (80-100)	50 to 100%	–	–
Cc1cc(-c2ncn(-c3ccc(OC(F)(F)F)cc3)n2)ccc1NC(=O)/N=C1\SCC(=O)N1c1ccccc1C(C)C [Molecule A123, (Z)-1-(3-(2-isopropylphenyl)-4-oxothiazolidin-2-ylidene)-3-(2-methyl-4-(1-(4-(trifluoromethoxy)phenyl)-1H-1,2,4-triazol-3-yl)phenyl)urea]	50 to 100%	50 to 100%	A (80-100)	–	–	–
Cc1ccc(N2C(=O)CS/C2=N\C(=O)Nc2ccc(-c3ncn(-c4ccc(OC(F)(F)F)cc4)n3)cc2)c(Cl)c1 [Molecule A77]	50 to 100%	50 to 100%	B (More than 0-Less than 80)	–	–	–
COc1ccc(N2C(=O)CS/C2=N\C(=O)Nc2ccc(-c3ncn(-c4ccc(OC(F)(F)F)cc4)n3)cc2)c(C)c1 [Molecule A110]	50 to 100%	50 to 100%	A (80-100)	–	–	–
COc1ccc(N/C(O)=C/C(=O)Nc2ccc(-c3ncn(-c4ccc(OC(F)(F)F)cc4)n3)cc2)c(C(C)C)c1 [Molecule A34, (Z)-3-hydroxy-3-(2-isopropyl-4-methoxyphenylamino)-N-(4-(1-(4-(trifluoromethoxy)phenyl)-1H-1,2,4-triazol-3-yl)phenyl)acrylamide]	–	50 to 100%	A (80-100)	50 to 100%	–	–
Cc1ccccc1N/C(S)=N/C(=O)Nc1ccc(-c2ncn(-c3ccc(OC(F)(F)F)cc3)n2)cc1 [Molecule A80]	–	50 to 100%	B (More than 0-Less than 80)	50 to 100%	–	–
Cc1cccc(C)c1N/C(=N/C(=O)Nc1ccc(-c2ncn(-c3ccc(C(F)(F)F)cc3)n2)cc1)SCOC(=O)C(C)C [Molecule A3, (E)-(N′-(2,6-Dimethylphenyl)-N-(4-(1-(4-(trifluoromethyl)phenyl)-1H-1,2,4-triazol-3-yl)phenylcarbamoyl)carbamimidoylthio) methyl isobutyrate]	–	50 to 100%	A (80-100)	50 to 100%	–	–
COc1ccc(N/C(=N\C(=O)Nc2ccc(-c3ncn(-c4ccc(OC(F)(F)F)cc4)n3)cc2)SCOC(=O)C(C)C)cc1 [Molecule A62]	–	50 to 100%	A (80-100)	50 to 100%	–	–
CC(C)c1cccc(Cl)c1N1C(=O)CS/C1=N\C(=O)Nc1ccc(-c2ncn(-c3ccc(OC(F)(F)F)cc3)n2)cc1 [Molecule A85]	50 to 100%	50 to 100%	A (80-100)	–	–	–
Cc1cccc(Cl)c1N1C(=O)CS/C1=N\C(=O)Nc1ccc(-c2ncn(-c3ccc(OC(F)(F)F)cc3)n2)cc1 [Molecule A74]	50 to 100%	50 to 100%	–	–	–	–
Cc1cccc(C)c1N/C(O)=C/C(=O)Nc1ccc(-c2ncn(-c3ccc(OC(F)(F)F)cc3)n2)cc1 [Molecule A32, (Z)-3-(2,6-dimethylphenylamino)-3-hydroxy-I-(4-(1-(4-(trifluoromethoxy)phenyl)-1H-1,2,4-triazol-3-yl)phenyl)acrylamide]	–	50 to 100%	–	50 to 100%	–	–
CC(C)c1ccccc1N1C(=O)CS/C1=N\C(=O)Nc1ccc(-c2ncn(-c3ccc(OC(F)(F)C(F)(F)F)cc3)n2)cc1 [Molecule A115]	50 to 100%	50 to 100%	–	–	–	–
CCc1cccc(C)c1N/C(S)=N/C(=O)Nc1ccc(-c2ncn(-c3ccc(OC(F)(F)F)cc3)n2)cc1 [Molecule A97]	50 to 100%	50 to 100%	–	–	–	–
Cc1cccc(C)c1N1CC(C)CS/C1=N\C(=O)Nc1ccc(-c2ncn(-c3ccc(OC(F)(F)F)cc3)n2)cc1 (stereo not shown) [Molecule A39]	–	50 to 100%	–	50 to 100%	–	–
CC(C)C(=O)OCS/C(=N/C(=O)Nc1ccc(-c2ncn(-c3ccc(OC(F)(F)F)cc3)n2)cc1)Nc1c(Cl)cccc1Cl [Molecule A58]	–	50 to 100%	–	50 to 100%	–	–
CC(C)c1cc(F)ccc1N/C(S)=N/C(=O)Nc1ccc(-c2ncn(-c3ccc(OC(F)(F)F)cc3)n2)cc1 [Molecule A116]	50 to 100%	50 to 100%	–	–	–	–
Cc1cc(C)c(N2C(=O)CS/C2=N\C(=O)Nc2ccc(-c3ncn(-c4ccc(OC(F)(F)F)cc4)n3)cc2)c(C)c1 [Molecule A36]	–	50 to 100%	–	50 to 100%	–	–
Cc1cccc(C)c1N/C(=N/C(=O)Nc1ccc(-c2ncn(-c3ccc(C(F)(F)F)cc3)n2)cc1)SCOC(=O)CNC(=O)OCc1ccccc1 [Molecule A8, (Z)—((N-(2,6-Dimethylphenyl)-N′-((4-(1-(4-(trifluoromethyl)phenyl)-1H-1,2,4-triazol-3-yl)phenyl)carbamoyl)carbamimidoyl)thio)methyl 2-(((benzyloxy)carbonyl)amino)acetate]	–	–	–	–	50 to 100%	50 to 100%
CCCc1ccccc1N1C(=O)CS/C1=N\C(=O)Nc1ccc(-c2ncn(-c3ccc(OC(F)(F)F)cc3)n2)cc1 [Molecule A69]	50 to 100%	50 to 100%	A (80-100)	–	–	–
CCC(C)c1ccccc1N/C(=N\C(=O)Nc1ccc(-c2ncn(-c3ccc(OC(F)(F)F)cc3)n2)cc1)SCOC(=O)C(C)C (stereo not shown) [Molecule A54]	–	50 to 100%	–	50 to 100%	–	–
Cc1ccccc1N/C(=N\C(=O)Nc1ccc(-c2ncn(-c3ccc(OC(F)(F)F)cc3)n2)cc1)SCOC(=O)C(C)C [Molecule A60]	–	50 to 100%	–	50 to 100%	–	–
CC(C)n1nccc1N/C(S)=N/C(=O)Nc1ccc(-c2ncn(-c3ccc(OC(F)(F)F)cc3)n2)cc1 [Molecule A119]	0 to 50%	50 to 100%	–	–	–	–
Cc1cccc(N2C(=O)CS/C2=N\C(=O)Nc2ccc(-c3ncn(-c4ccc(OC(F)(F)F)cc4)n3)cc2)c1C(C)C [Molecule A108]	50 to 100%	50 to 100%	–	–	–	–
Cc1ccc(Cl)cc1N1C(=O)CS/C1=N\C(=O)Nc1ccc(-c2ncn(-c3ccc(OC(F)(F)F)cc3)n2)cc1 [Molecule A76]	50 to 100%	50 to 100%	–	–	–	–
